Laboratory results published in patent US20080200454A1, “CARBON-LINKED TETRAHYDRO-PYRAZOLO-PYRIDINE MODULATORS OF CATHEPSIN S” (priority 2007, published 2008).

Molecular target: Recombinant human cathepsin S (CatS) (Homo sapiens, UniProt P25774)
Assay: Recombinant human cathepsin S (CatS) inhibition assay, fluorogenic substrate Z-Valine-Valine-Arginine-AMC;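 also: Baculovirus-expressed CatS in pH 5.0 sodium acetate buffer with DTT and NaCl, fluorescence read each minute over 20 min, inhibition derived from rate slope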
Details: not given

Chain of Recombinant human cathepsin S (CatS) (P25774 115-331): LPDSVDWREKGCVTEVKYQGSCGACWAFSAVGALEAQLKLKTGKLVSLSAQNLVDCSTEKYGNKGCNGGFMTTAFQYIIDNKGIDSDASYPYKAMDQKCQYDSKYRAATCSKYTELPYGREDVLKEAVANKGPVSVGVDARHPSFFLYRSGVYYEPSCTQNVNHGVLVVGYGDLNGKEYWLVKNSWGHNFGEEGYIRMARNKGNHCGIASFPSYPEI

SMILES	IC50
CCNCc1cc(C#Cc2cc(-c3nn(CCCN4CCCCC4)c4c3CN(C(N)=O)CC4)ccc2Cl)ccc1Cl [Example 167, 3-[4-Chloro-3-({4-chloro-3-[(ethylamino)methyl]phenyl}ethynyl)phenyl]-1-(3-piperidin-1-ylpropyl)-1,4,6,7-tetrahydro-5H-pyrazolo[4,3-c]pyridine-5-carboxamide]	30 nM
CS(=O)(=O)N1CCc2c(c(-c3ccc(Cl)c(C#CCCO)c3)nn2CCCN2CCOCC2)C1 [Example 299, 4-{2-Chloro-5-[5-(methylsulfonyl)-1-(3-morpholin-4-ylpropyl)-4,5,6,7-tetrahydro-1H-pyrazolo[4,3-c]pyridin-3-yl]phenyl}but-3-yn-1-ol]	4800 nM
CS(=O)(=O)N1CCc2c(c(-c3ccc(Cl)c(C#CCNC(=O)c4ccccc4)c3)nn2CCCN2CCOCC2)C1 [Example 53, N-(3-{2-Chloro-5-[5-methanesulfonyl-1-(3-morpholin-4-yl-propyl)-4,5,6,7-tetrahydro-1H-pyrazolo[4,3-c]pyridin-3-yl]-phenyl}-prop-2-ynyl)-benzamide]	15500 nM
CS(=O)(=O)N1CCc2c(c(-c3ccc(Cl)c(CCCNS(=O)(=O)c4ccccc4)c3)nn2CCCN2CCOCC2)C1 [Example 65, N-(3-{2-Chloro-5-[5-methanesulfonyl-1-(3-morpholin-4-yl-propyl)-4,5,6,7-tetrahydro-1H-pyrazolo[4,3-c]pyridin-3-yl]-phenyl}-propyl)-benzenesulfonamide]	1070 nM
CS(=O)(=O)N1CCc2c(c(-c3ccc(Cl)c(C#CCN4CCS(=O)(=O)CC4)c3)nn2CCCN2CCOCC2)C1 [Example 50, 3-{4-Chloro-3-[3-(1,1-dioxo-1 A^6-thiomorpholin-4-yl)-prop-1-ynyl]-phenyl}-5-methanesulfonyl-1-(3-morpholin-4-yl-propyl)-4,5,6,7-tetrahydro-1H-pyrazolo[4,3-c]pyridine]	6800 nM
CS(=O)(=O)N1CCc2c(c(-c3ccc(Cl)c(CCc4ccc(Cl)cc4)c3)nn2CC(O)CN2CCOCC2)C1 (stereo not drawn) [Example 149, 1-(3-{4-Chloro-3-[2-(4-chloro-phenyl)-ethyl]-phenyl}-5-methanesulfonyl-4,5,6,7-tetrahydro-pyrazolo[4,3-c]pyridin-1-yl)-3-morpholin-4-yl-propan-2-ol]	110 nM
NC(=O)N1CCc2c(c(-c3ccc(Cl)c(C#Cc4ccc(Cl)c(C(=O)NCCCO)c4)c3)nn2CCCN2CCSCC2)C1 [Example 555, 3-[4-Chloro-3-({4-chloro-3-[(3-hydroxypropyl)carbamoyl]phenyl}ethynyl)phenyl]-1-(3-thiomorpholin-4-ylpropyl)-1,4,6,7-tetrahydro-5H-pyrazolo[4,3-c]pyridine-5-carboxamide]	20 nM
NC(=O)N1CCc2c(c(-c3ccc(Cl)c(C#Cc4ccc(CNCc5ccc(Cl)cc5)cc4)c3)nn2CCCN2CCCCC2)C1 [Example 458, 3-(4-Chloro-3-{[4-({[(4-chlorophenyl)methyl]amino}methyl)phenyl]ethynyl}phenyl)-1-(3-piperidin-1-ylpropyl)-1,4,6,7-tetrahydro-5H-pyrazolo[4,3-c]pyridine-5-carboxamide]	60 nM
CS(=O)(=O)N1CCc2c(c(-c3ccc(Cl)c(C#Cc4ccc(Cl)cc4)c3)nn2CC(O)CN2CCCCC2)C1 (stereo not drawn) [Example 125, 1-{3-[4-Chloro-3-(4-chloro-phenylethynyl)-phenyl]-5-methanesulfonyl-4,5,6,7-tetrahydro-pyrazolo[4,3-c]pyridin-1-yl}-3-piperidin-1-yl-propan-2-ol]	80 nM
CS(=O)(=O)N1CCc2c(c(-c3ccc(Cl)c(C#Cc4cccc(CO)c4)c3)nn2CCCN2CCOCC2)C1 [Example 6, (3-{2-Chloro-5-[5-methanesulfonyl-1-(3-morpholin-4-yl-propyl)-4,5,6,7-tetrahydro-1H-pyrazolo[4,3-c]pyridin-3-yl]-phenylethynyl}-phenyl)-methanol]	950 nM
CS(=O)(=O)N1CCc2c(c(-c3ccc(Cl)c(CCCNS(=O)(=O)Cc4ccccc4)c3)nn2CCCN2CCOCC2)C1 [Example 81, N-(3-{2-Chloro-5-[5-methanesulfonyl-1-(3-morpholin-4-yl-propyl)-4,5,6,7-tetrahydro-1H-pyrazolo[4,3-c]pyridin-3-yl]-phenyl}-propyl)-C-phenyl-methanesulfonamide]	5470 nM
CC(C)(C)OC(=O)N1CCC(C2CCN(C[C@H](O)Cn3nc(-c4ccc(Cl)c(C#CC5CCCCC5)c4)c4c3CCN(S(C)(=O)=O)C4)CC2)CC1 [Example 233, 1,1-Dimethylethyl 1′-[(2S)-3-{3-[4-chloro-3-(cyclohexylethynyl)phenyl]-5-(methylsulfonyl)-4,5,6,7-tetrahydro-1H-pyrazolo[4,3-c]pyridin-1-yl}-2-hydroxypropyl]-4,4′-bipiperidine-1-carboxylate]	7920 nM
CCNCc1cc(C#Cc2cc(-c3nn(CCCN4CCOC[C@@H]4C)c4c3CN(C(=O)C(N)=O)CC4)ccc2Cl)ccc1Cl [Example 566, 2-(3-[4-Chloro-3-({4-chloro-3-[(ethylamino)methyl]phenyl}ethynyl)phenyl]-1-{3-[(3S)-3-methylmorpholin-4-yl]propyl}-1,4,6,7-tetrahydro-5H-pyrazolo[4,3-c]pyridin-5-yl)-2-oxoacetamide]	20 nM
NC(=O)C(=O)N1CCc2c(c(-c3ccc(Cl)c(C#Cc4ccc5c(c4)CN(Cc4ccc(Cl)cc4)CC5)c3)nn2CCCN2CCOCC2)C1 [Example 159, 2-{3-[4-Chloro-3-({2-[(4-chlorophenyl)methyl]-1,2,3,4-tetrahydroisoquinolin-7-yl}ethynyl)phenyl]-1-(3-morpholin-4-ylpropyl)-1,4,6,7-tetrahydro-5H-pyrazolo[4,3-c]pyridin-5-yl}-2-oxoacetamide]	60 nM
C[C@H]1COCCN1C[C@H](O)Cn1nc(-c2ccc(Cl)c(C#Cc3ccc(CNCc4ccc(Cl)cc4)cc3)c2)c2c1CCN(S(C)(=O)=O)C2 [Example 265, (2S)-1-[3-(4-Chloro-3-{4-[(4-chloro-benzylamino)-methyl]-phenylethynyl}-phenyl)-5-methanesulfonyl-4,5,6,7-tetrahydro-pyrazolo[4,3-c]pyridin-1-yl]-3-((3S)-3-methyl-morpholin-4-yl)-propan-2-ol]	140 nM

Same assay, conditions: CatS IC50

SMILES	IC50
CNCCCNC(=O)c1ccc(C#Cc2cc(-c3nn(CCCN4CCCCC4)c4c3CN(S(C)(=O)=O)CC4)ccc2Cl)cc1 [Example 614, 4-({2-Chloro-5-[5-(methylsulfonyl)-1-(3-piperidin-1-ylpropyl)-4,5,6,7-tetrahydro-1H-pyrazolo[4,3-c]pyridin-3-yl]phenyl}ethynyl)-N-[3-(methylamino)propyl]benzamide]	60 nM
C[C@H]1COCCN1CCCn1nc(-c2ccc(Cl)c(C#Cc3ccc(CNCc4ccco4)cc3)c2)c2c1CCN(S(C)(=O)=O)C2 [Example 432, 1-[4-({2-Chloro-5-[1-{3-[(3S)-3-methylmorpholin-4-yl]propyl}-5-(methylsulfonyl)-4,5,6,7-tetrahydro-1H-pyrazolo[4,3-c]pyridin-3-yl]phenyl}ethynyl)phenyl]-N-(furan-2-ylmethyl)methanamine]	230 nM
C[C@H]1COCCN1CCCn1nc(-c2ccc(Cl)c(C#Cc3ccc(Cl)c(C(=O)NCCCNC(=O)OC(C)(C)C)c3)c2)c2c1CCN(C(=O)C(N)=O)C2 [Example 577, tert-Butyl (3-{[(5-{[5-(5-[amino(oxo)acetyl]-1-{3-[(3S)-3-methylmorpholin-4-yl]propyl}-4,5,6,7-tetrahydro-1H-pyrazolo[4,3-c]pyridin-3-yl)-2-chlorophenyl]ethynyl}-2-chlorophenyl)carbonyl]amino}propyl)carbamate]	20 nM
NC(=O)N1CCc2c(c(-c3ccc(Cl)c(C#Cc4ccc(CNCc5ccc(Cl)cc5)cc4)c3)nn2CCCN2CCN(C3CC3)CC2)C1 [Example 463, 3-(4-Chloro-3-{[4-({[(4-chlorophenyl)methyl]amino}methyl)phenyl]ethynyl}phenyl)-1-[3-(4-cyclopropylpiperazin-1-yl)propyl]-1,4,6,7-tetrahydro-5H-pyrazolo[4,3-c]pyridine-5-carboxamide]	110 nM
NC(=O)N1CCc2c(c(-c3ccc(Cl)c(C#Cc4ccc(CNCc5ccc(Cl)cc5)cc4)c3)nn2CCCN2C[C@H]3COC[C@H]3C2)C1 [Example 170, 3-[4-Chloro-3-[(4-{[(4-chlorobenzyl)amino]methyl]phenyl)ethynyl]phenyl}-1-{3-[(3aR,6aS)-tetrahydro-1H-furo[3,4-c]pyrrol-5(3H)-yl]propyl}-1,4,6,7-tetrahydro-5H-pyrazolo[4,3-c]pyridine-5-carboxamide]	50 nM
C[C@H]1COC[C@H](C)N1CCCn1nc(-c2ccc(Cl)c(C#Cc3ccc(CNCc4ccc(Cl)cc4)cc3)c2)c2c1CCN(C(=O)C(N)=O)C2 [Example 157, 2-(3-{4-Chloro-3-[(4-{[(4-chlorobenzyl)amino]methyl}phenyl)ethynyl]phenyl}-1-{3-[(3S,5S)-3,5-dimethylmorpholin-4-yl]propyl}-1,4,6,7-tetrahydro-5H-pyrazolo[4,3-c]pyridin-5-yl)-2-oxoacetamide]	40 nM

Same assay, conditions: CatS IC50, Table 2; average of results obtained

SMILES	IC50
CCCCC#Cc1cc(-c2nn(CCCN3CCOCC3)c3c2CN(S(C)(=O)=O)CC3)ccc1Cl [Example 47, 3-(4-Chloro-3-hex-1-ynyl-phenyl)-5-methanesulfonyl-1-(3-morpholin-4-yl-propyl)-4,5,6,7-tetrahydro-1H-pyrazolo[4,3-c]pyridine]	10600 nM
CS(=O)(=O)N1CCc2c(c(-c3ccc(Cl)c(C#Cc4ccccc4C(F)(F)F)c3)nn2CCCN2CCOCC2)C1 [Example 34, 3-[4-Chloro-3-(2-trifluoromethyl-phenylethynyl)-phenyl]-5-methanesulfonyl-1-(3-morpholin-4-yl-propyl)-4,5,6,7-tetrahydro-1H-pyrazolo[4,3-c]pyridine]	870 nM
O=C(N1CCc2c(c(-c3ccc(Cl)c(C#Cc4ccc(Cl)cc4)c3)nn2CCCN2CCOCC2)C1)C(F)(F)F [Example 139, 1-[3-[4-Chloro-3-(4-chloro-phenylethynyl)-phenyl]-1-(3-morpholin-4-yl-propyl)-1,4,6,7-tetrahydro-pyrazolo[4,3-c]pyridin-5-yl]-2,2,2-trifluoro-ethanone]	230 nM
